Entries after “also recorded” stand apart in the source; their conditions may differ.
Test system: serum antibodies raised against the conjugate consisting of compound 3 covalently linked to CRM197
Test: Carbohydrate microarray analysis of serum from Balb/c mice immunized with the conjugate of compound 3 and CRM197
Assay type: binding
Conditions: pooled serum of Balb/c mice immunized with compound 3-CRM197 conjugate; compounds printed at 1 mM; FIG. 3
Protocol: FIG. 3: left side: Analysis of pooled serum that was obtained 4 weeks after 1st immunization of Balb/c mice with a conjugate consisting of CRM197 covalently linked to compound 3; right side: Printing pattern: all compounds were printed in a 3×3 pattern and in a concentration of 1 mM; left, upper corner: compound 5; left lower corner: compound 3; right, upper corner: compound 4; right lower corner: (α-D-Mannopyranosyl)-(1→2)-(α-D-mannopyranosyl)-(1→2)-(α-D-mannopyranosyl)-(1→6)-(α-D-mannopyranosyl)-(1→4)-(2-amino-2-deoxy-α-D-glucopyranosyl)-(1→6)-1-O-(6-thiohexyl phosphono)-D-myo-inositol (Chem. Eur. J. 2005, 11, 2493).
Three female BALB/c mice were immunized s.c. with 35 μg conjugate, prepared as described in example 11a, in Freund's complete adjuvant. […] After the second immunization, serum was collected and the antibody titer (total IgG) was determined by microarray six weeks after the first immunization.

Compound	binding of serum antibodies to the glycan printed on the microarray
6-O-(aminoethyl phosphono)-α-D-mannopyranosyl-(1→2)-α-D-mannopyranosyl-(1→6)-4-O-(α-D-glucopyranosyl-(1→4)-2-deoxy-2-acetamido-β-D-galactopyranosyl)-α-D-manno-pyranosyl-(1→4)-2-amino-2-deoxy-α-D-glucopyranosyl-(1→6)-1-O-(thiohexyl phosphono)-D-myo-inositol [compound 4]	not
N[C@H]1[C@@H](O[C@@H]2[C@@H](O)[C@H](O)[C@@H](O)[C@@H](O)[C@H]2OP(=O)(O)OCCCCCCS)O[C@H](CO)[C@@H](O[C@H]2O[C@H](CO[C@H]3O[C@H](CO)[C@@H](O)[C@H](O)[C@@H]3O[C@H]3O[C@H](CO)[C@@H](O)[C@H](O)[C@@H]3O[C@H]3O[C@H](CO)[C@@H](O)[C@H](O)[C@@H]3O)[C@@H](O)[C@H](O)[C@@H]2O)[C@@H]1O [(α-D-Mannopyranosyl)-(1→2)-(α-D-mannopyranosyl)-(1→2)-(α-D-mannopyranosyl)-(1→6)-(α-D-mannopyranosyl)-(1→4)-(2-amino-2-deoxy-α-D-glucopyranosyl)-(1→6)-1-O-(6-thiohexylphosphono)-D-myo-inositol, reference compound]	not
CC(=O)NC1C(O)[C@@H](O)C(CO)O[C@H]1O[C@@H]1C(CO[C@H]2OC(CO)[C@@H](O)C(O)C2O[C@H]2OC(COP(=O)(O)OCCN)[C@@H](O)C(O)C2O)O[C@H](O[C@@H]2C(CO)O[C@H](O[C@@H]3C(O)C(O)[C@@H](O)C(O)C3OP(=O)(O)OCCCCCCS)C(N)C2O)C(O)C1O (stereo partly drawn) [compound 3, 6-O-(aminoethylphosphono)-α-D-mannopyranosyl-(1→2)-α-D-mannopyranosyl-(1→6)-4-O-(2-deoxy-2-acetamido-β-D-galactopyranosyl)-α-D-mannopyranosyl-(1→4)-2-amino-2-deoxy-α-D-glucopyranosyl-(1→6)-1-O-(thiohexylphosphono)-D-myo-inositol]	specifically evoke a binding; also recorded: bound
CC(=O)NC1C(O)[C@@H](O)C(CO)O[C@H]1O[C@@H]1C(CO[C@H]2OC(CO)[C@@H](O)C(O)C2O[C@H]2OC(COP(=O)(O)OCCN)[C@@H](O)C(O)C2O)O[C@H](O[C@@H]2C(CO)O[C@H](O[C@@H]3C(O)C(O)[C@@H](O)C(O)C3OP(=O)(O)OCCCCCCS)C(N)C2O)C(OP(=O)(O)OCCN)C1O (stereo partly drawn) [compound 5, 6-O-(aminoethylphosphono)-α-D-mannopyranosyl-(1→2)-α-D-mannopyranosyl-(1→6)-2-O-(aminoethylphosphono)-4-O-(2-deoxy-2-acetamido-β-D-galactopyranosyl)-α-D-mannopyranosyl-(1→4)-2-amino-2-deoxy-α-D-glucopyranosyl-(1→6)-1-O-(thiohexylphosphono)-D-myo-inositol]	not and did not show cross reactivity

— patent US9802974B2, “Synthesis of diverse glycosylphosphatidylinositol glycans from Toxoplasma gondii and their application as vaccines and diagnostics” (Max-Planck-Gesellschaft zur Förderung der Wissenschaften …, priority 2012, dated 2017)
